Data: ChEMBL document CHEMBL4613244, “Absolute Configuration and Corrected NMR Assignment of 17-Hydroxycyclooctatin, a Fused 5-8-5 Tricyclic Diterpene” (J Nat Prod, 2020)
Active and inactive are the calls of the source. The calls are words filed in the database; no cut-off is given here.

Legend:
Type in all cases: functional, cell-based
[1] = system: MCF7; assay: Anti-estrogenic activity in human MCF7 cells assessed as reduction in 17beta-estradiol-induced cell viability at 100 nM after 24 hrs by MTT assay
[2] = system: MCF7; assay: Antiproliferative activity against human MCF7 cells assessed as reduction in cell viability after 24 hrs by MTT assay; details: MCF7, 24 h
[3] = system: MCF7; assay: Anti-estrogenic activity in human MCF7 cells assessed as reduction in 17beta-estradiol-induced cell viability at 100 to 200 uM after 24 hrs by MTT assay

| Structure (SMILES) | Activity [1] | IC50 [2] [µM] | Activity [3] |
| --- | --- | --- | --- |
| C[C@]12CC[C@@H]3c4ccc(O)cc4C[C@@H](CCCCCCCCC[S+]([O-])CCCC(F)(F)C(F)(F)F)[C@H]3[C@@H]1CC[C@@H]2O (stereo partly drawn) | Active |  |  |
| C[C@H](CO)[C@H]1CC[C@]2(C)C[C@@H]3[C@H](CO)C[C@@H](O)[C@H]3[C@@](C)(O)C/C=C/12 |  | 567 | Active |
